# Where “and” joins values, the source holds several entries; their conditions need not be identical. Equal entries are not always repeated.
# Assays:
# Aβ1-42 fibrils [1] = biological target: T1, Aβ1-42 fibrils (Homo sapiens, UniProt P05067); details: radioactive ligand, known value, printed as second Aβ1-40; read-out: Kd for Aβ1-40 (second named); cited from earlier work
# T1 construct: beta-amyloid plaque peptides (Aβ1-40 and Aβ1-42)
# Aβ1-40 fibrils [2] = biological target: T2, Aβ1-40 fibrils (Homo sapiens, UniProt P05067); details: radioactive ligand, known value, first Aβ1-40; cited from earlier work
# T2 construct: beta-amyloid plaque peptides (Aβ1-40 and Aβ1-42)
# [3] = In vivo cerebral uptake and release degree in a normal mouse; design: species or system ICR mice; details: for % ID-kg/g: corrected for body weight; for % ID/g: tail vein injection, normal mouse; for release from normal mouse brain (in words): up to 60 min
# Experimental: 6 week-old ICR mice were used for experiments on cerebral uptake and release degree of three 6-[18F]fluorine-2-allylbenzothiazole derivatives (compounds in Examples 1 to 3) in a mouse over time. Each of the compounds in Examples 1 to 3 was dissolved in physiological saline solution containing 5% ethanol, and each of 200 μl (100 μCi) of the solutions was injected through the tail vein of the mouse. 2, 30, and 60 minutes were selected as in-vivo retention time periods, and 4 to 7 mice were used in each time period. After the mice were sacrificed by cervical dislocation in each time period, the brains were quickly removed, they were separated into three parts of cortex, cerebellum, and remnant on filter paper kept on ice, respectively, and blood was collected. The specimen thus-obtained was introduced into a glass tube, the weight was determined, and the radioactivity were measured using a gamma counter. Using the data obtained, the percent injected dose per gram of tissue (% ID/g) in each sample compared to radioactivity actually injected, and the value (% ID-kg/g) corrected for individual body weights of the mice used were calculated.
# [4] = Measurement of partition coefficient (1-octanol / PBS buffer, gamma counter); format: physicochemical; details: 1-octanol / 1 M PBS buffer, room temperature; read-out: Log P value
# Experimental: For this purpose, the distribution ratio of octanol to water buffer of the compound to be measured may be measured to determine the relative lipophilicity of each compound. […] The mixture was vortexed at room temperature for 5 minutes and then was centrifuged at 1000 rpm for 5 minutes. 4 ml was withdrawn from the octanol layer of the solution, introduced into a new tube, and another 4 ml of 1 M PBS buffer was introduced into the tube. The mixture was vortexed at room temperature for 5 minutes and then centrifuged at 1000 rpm for 5 minutes. 50 μl was withdrawn from the octanol layer and introduced into a test tube, and 500 μl was withdrawn from the 1 M PBS buffer and introduced into the test tube. 3 ml was withdrawn from the octanol layer and introduced into another test tube, and another 3 ml of 1 M PBS buffer was added into the test tube. The mixture was vortexed at room temperature for 5 minutes and then centrifuged at 1000 rpm for 5 minutes. 50 μl was withdrawn from the octanol layer and introduced into a test tube, and 500 μl was withdrawn from the 1 M PBS buffer and introduced into the test tube. 2 ml was withdrawn from the octanol layer and introduced into another test tube, and another 2 ml of the PBS buffer. The mixture was vortexed at room temperature for 5 minutes and then centrifuged at 1000 rpm for 5 minutes. […]
# [5] = Brain imaging (PET) of normal volunteer, brain region to cerebellar ratio; format: in vivo, human; details: 196 MBq i.v.; for brain region to cerebellar ratio, Cinerea / brain region to cerebellar ratio, Frontal cortex / brain region to cerebellar ratio, Occipital cortex / brain region to cerebellar ratio, posterior cingulate cortex: PET; for brain region to cerebellar ratio, Cerebell: PET (reference region)
# Experimental: Each of the compounds (196 MBq) in Examples 2 and 3 of the present invention was dissolved in 6 ml of physiological saline solution including 5% ethanol, the resulting solution was intravenously injected into a normal volunteer (78 kg), and Static Images of the brain from the injection to 2 hours were obtained through a Phillips Allegro PET scanner. The protocol of the brain imaging repeated emission and transmission as follows.
# [2 minute emission+transmission]×four times
# [5 minute emission+transmission]×four times
# [10 minute emission+transmission]×three times
# For attenuation correction, a Cs-137 radiation source prior to the administration was used to obtain a one-and-a half minute transmission scan per bed (18 cm). The transmission image and a 3D Row-Action Maximum-Likelihood (RAMLA) algorithm were used to reconstruct an attenuation corrected image. The 3D voxel size was 2.0×2.0×2.0 mm and the matrix size was 128×128×90 (FIGS. 2 and 3).
# Aβ1-40 fibrils [6] = biological target: T2, Aβ1-40 fibrils; experiment: Binding affinity to beta-amyloid fibrils, competition with [125I]TZDM; details: [125I]TZDM radioligand
# Experimental: (§1) A fibril solution, in which 1 mg of each of beta-amyloid plaque peptides (Aβ1-40 and Aβ1-42) to be used for analysis was dissolved in 1.155 ml of ethylenediaminetetraacetic acid disodium salt (Na2EDTA) solution, was introduced into 20 mM PBS buffer (pH 7.4), a sonication was performed for 30 minutes, and then the mixture was incubated with stirring for 3 days at 30° C. The thus-obtained solution was high speed centrifuged (28,000 g for 15 minutes) at 4° C., and the supernatant was collected. The precipitate was washed twice with 100 μl of a mixture solution of 1 mM ethylenediaminetetraacetic acid disodium salt and 10 mM PBS buffer. The precipitate was resuspended in 2.310 ml of 1 mM ethylenediaminetetraacetic acid disodium salt and 10 mM PBS buffer, and the suspended sold produced was divided into equal aliquots of 30 μl and kept at −80° C. […] A mixed solution with a total volume of 1000 μl was incubated at room temperature for 3 hours, and then a Whatman GF/B filter was used to separate the solution into unbound radioactive materials and bound radioactive materials. Then, each tube was washed three times with 3 μl of 10% ethanol. The radioactivity was measured using an automatic gamma counter.
# Aβ1-42 fibrils [7] = biological target: T1, Aβ1-42 fibrils; experiment: as above; details: [125I]TZDM radioligand
# Experimental: as §1
# T2 sequence (P05067 672-711 limits assumed): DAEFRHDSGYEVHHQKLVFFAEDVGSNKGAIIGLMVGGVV
# T1 sequence (P05067 672-713 limits assumed): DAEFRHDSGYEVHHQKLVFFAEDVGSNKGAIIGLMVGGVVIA
structure (smiles),measurement,setting,value
CNc1ccc(-c2nc3ccccc3s2)cc1I [2-(3-[125I]iodo-4′-N-methylaminophenyl)benzothiazole],Kd,Aβ1-42 fibrils [1],0.44 ± 0.25 nM
same,Kd,Aβ1-40 fibrils [2],2.3 ± 0.33 nM
"CNc1ccc(-c2nc3ccc([18F])cc3s2)cc1 [Example 2, 2-(4′-N-Methylaminophenyl)-6-[^18F]fluorobenzothiazole]",% ID-kg/g,"[3]; Blood, 2 min",0.070 ± 0.007 % ID-kg/g
same,% ID/g,"[3]; Blood, 2 min",2.08 ± 0.19 % ID/g
same,% ID-kg/g,"[3]; Blood, 30 min",0.032 ± 0.007 % ID-kg/g
same,% ID/g,"[3]; Blood, 30 min",0.92 ± 0.15 % ID/g
same,% ID-kg/g,"[3]; Blood, 60 min",0.042 ± 0.006 % ID-kg/g
same,% ID/g,"[3]; Blood, 60 min",1.28 ± 0.08 % ID/g
same,% ID-kg/g,"[3]; Cerebellum, 2 min",0.210 ± 0.017 % ID-kg/g
same,% ID/g,"[3]; Cerebellum, 2 min",6.24 ± 0.35 % ID/g
same,% ID-kg/g,"[3]; Cerebellum, 30 min",0.048 ± 0.011 % ID-kg/g
same,% ID/g,"[3]; Cerebellum, 30 min",1.38 ± 0.23 % ID/g
same,% ID-kg/g,"[3]; Cerebellum, 60 min",0.032 ± 0.003 % ID-kg/g
same,% ID/g,"[3]; Cerebellum, 60 min",0.98 ± 0.12 % ID/g
same,% ID-kg/g,"[3]; Cortex, 2 min",0.222 ± 0.015 % ID-kg/g
same,% ID/g,"[3]; Cortex, 2 min",6.62±0.33 % ID/g
same,% ID-kg/g,"[3]; Cortex, 30 min",0.042 ± 0.010 % ID-kg/g
same,% ID/g,"[3]; Cortex, 30 min",1.20 ± 0.20 % ID/g
same,% ID-kg/g,"[3]; Cortex, 60 min",0.024 ± 0.002 % ID-kg/g
same,% ID/g,"[3]; Cortex, 60 min",0.73±0.09 % ID/g and 0.73 ± 0.10 % ID/g
same,% ID-kg/g,"[3]; Remnant (brain), 2 min",0.212 ± 0.017 % ID-kg/g
same,% ID/g,"[3]; Remnant (brain), 2 min",6.30 ± 0.46 % ID/g
same,% ID-kg/g,"[3]; Remnant (brain), 30 min",0.066 ± 0.014 % ID-kg/g
same,% ID/g,"[3]; Remnant (brain), 30 min",1.91 ± 0.30 % ID/g
same,% ID-kg/g,"[3]; Remnant (brain), 60 min",0.044 ± 0.003 % ID-kg/g
same,% ID/g,"[3]; Remnant (brain), 60 min",1.32 ± 0.15 % ID/g
same,release from normal mouse brain (in words),[3]; normal mouse brain,very quickly released
same,logP,[4],3.11
same,"brain region to cerebellar ratio, Cinerea",[5]; 15 min,0.45
same,"brain region to cerebellar ratio, Frontal cortex",[5]; 15 min,0.92
same,"brain region to cerebellar ratio, Occipital cortex",[5]; 15 min,1.05
same,"brain region to cerebellar ratio, posterior cingulate cortex",[5]; 15 min,0.89
same,"brain region to cerebellar ratio, Cerebell",[5]; 15 min,1.00
same,"brain region to cerebellar ratio, Cinerea",[5]; 90 min,0.83
same,"brain region to cerebellar ratio, Frontal cortex",[5]; 90 min,0.96
same,"brain region to cerebellar ratio, Occipital cortex",[5]; 90 min,0.95
same,"brain region to cerebellar ratio, posterior cingulate cortex",[5]; 90 min,0.87
same,"brain region to cerebellar ratio, Cerebell",[5]; 90 min,1.00
"CN(C)c1ccc(-c2nc3ccc([18F])cc3s2)cc1 [Example 3, 2-(4′-N-Dimethylaminophenyl)-6-[^18F]fluorobenzothiazole]",% ID-kg/g,"[3]; Blood, 2 min",0.040 ± 0.003 % ID-kg/g
same,% ID/g,"[3]; Blood, 2 min",1.55 ± 0.08 % ID/g
same,% ID-kg/g,"[3]; Blood, 30 min",0.026 ± 0.005 % ID-kg/g
same,% ID/g,"[3]; Blood, 30 min",1.04 ± 0.19 % ID/g
same,% ID-kg/g,"[3]; Blood, 60 min",0.021 ± 0.010 % ID-kg/g
same,% ID/g,"[3]; Blood, 60 min",1.02 ± 0.06 % ID/g
same,% ID-kg/g,"[3]; Cerebellum, 2 min",0.115 ± 0.005 % ID-kg/g
same,% ID/g,"[3]; Cerebellum, 2 min",4.45 ± 0.19 % ID/g
same,% ID-kg/g,"[3]; Cerebellum, 30 min",0.050 ± 0.007 % ID-kg/g
same,% ID/g,"[3]; Cerebellum, 30 min",2.03 ± 0.26 % ID/g
same,% ID-kg/g,"[3]; Cerebellum, 60 min",0.024 ± 0.012 % ID-kg/g
same,% ID/g,"[3]; Cerebellum, 60 min",1.16 ± 0.09 % ID/g
same,% ID-kg/g,"[3]; Cortex, 2 min",0.114 ± 0.004 % ID-kg/g
same,% ID/g,"[3]; Cortex, 2 min",4.39 ± 0.22 % ID/g
same,% ID-kg/g,"[3]; Cortex, 30 min",0.054 ± 0.006 % ID-kg/g
same,% ID/g,"[3]; Cortex, 30 min",2.17 ± 0.26 % ID/g
same,% ID-kg/g,"[3]; Cortex, 60 min",0.033 ± 0.017 % ID-kg/g
same,% ID/g,"[3]; Cortex, 60 min",1.61 ± 0.22 % ID/g
same,% ID-kg/g,"[3]; Remnant (brain), 2 min",0.110 ± 0.006 % ID-kg/g
same,% ID/g,"[3]; Remnant (brain), 2 min",4.26 ± 0.22 % ID/g
same,% ID-kg/g,"[3]; Remnant (brain), 30 min",0.069 ± 0.010 % ID-kg/g
same,% ID/g,"[3]; Remnant (brain), 30 min",2.80 ± 0.39 % ID/g
same,% ID-kg/g,"[3]; Remnant (brain), 60 min",0.041 ± 0.020 % ID-kg/g
same,% ID/g,"[3]; Remnant (brain), 60 min",2.01 ± 0.15 % ID/g
same,initial cerebral uptake (in words),"[3]; normal mouse brain, 2 min",relatively lower initial cerebral uptake
same,release from normal mouse brain (in words),[3]; normal mouse brain,slower 60-minute removal rate
same,logP,[4],4.33
same,"brain region to cerebellar ratio, Cinerea",[5]; 15 min,0.40
same,"brain region to cerebellar ratio, Frontal cortex",[5]; 15 min,0.88
same,"brain region to cerebellar ratio, Occipital cortex",[5]; 15 min,1.17
same,"brain region to cerebellar ratio, posterior cingulate cortex",[5]; 15 min,0.91
same,"brain region to cerebellar ratio, Cerebell",[5]; 15 min,1.00
same,"brain region to cerebellar ratio, Cinerea",[5]; 90 min,0.83
same,"brain region to cerebellar ratio, Frontal cortex",[5]; 90 min,1.02
same,"brain region to cerebellar ratio, Occipital cortex",[5]; 90 min,1.12
same,"brain region to cerebellar ratio, posterior cingulate cortex",[5]; 90 min,1.00
same,"brain region to cerebellar ratio, Cerebell",[5]; 90 min,1.00
"CNc1ccc(-c2nc3ccc(F)cc3s2)cc1 [Example 5, 2-(4′-N-methylaminophenyl)-6-fluorobenzothiazole]",Ki,Aβ1-40 fibrils [6],13.3 nM
same,Ki,Aβ1-42 fibrils [7],7.55 nM
same,melting point,,153.5 to 154.5 °C
"CN(C)c1ccc(-c2nc3ccc(F)cc3s2)cc1 [Example 6, 2-(4′-Dimethylaminophenyl)-6-fluorobenzothiazole]",Ki,Aβ1-40 fibrils [6],7.9 nM
same,Ki,Aβ1-42 fibrils [7],1.86 nM
same,melting point,,204.4 to 205.9 °C

# From US20110250136A1, “FLUORINATED BENZOTHIAZOLE DERIVATIVES, PREPARATION METHOD THEREOF AND IMAGING AGENT FOR DIAGNOSING ALTZHEIMER'S DISEASE USING THE SAME” (SNU R&DB FOUNDATION, priority 2008, published 2011)
